# In ChEMBL document CHEMBL1201862, “PubChem BioAssay data set” (2004):
# Activity calls are given as the source filed them.
# Legend:
# [1] = molecular target: T1, Estrogen receptor (Homo sapiens, UniProt P03372);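 note: potency for inhibiting coactivator peptide recruitment to the receptor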
# T1 sequence (P03372 whole entry): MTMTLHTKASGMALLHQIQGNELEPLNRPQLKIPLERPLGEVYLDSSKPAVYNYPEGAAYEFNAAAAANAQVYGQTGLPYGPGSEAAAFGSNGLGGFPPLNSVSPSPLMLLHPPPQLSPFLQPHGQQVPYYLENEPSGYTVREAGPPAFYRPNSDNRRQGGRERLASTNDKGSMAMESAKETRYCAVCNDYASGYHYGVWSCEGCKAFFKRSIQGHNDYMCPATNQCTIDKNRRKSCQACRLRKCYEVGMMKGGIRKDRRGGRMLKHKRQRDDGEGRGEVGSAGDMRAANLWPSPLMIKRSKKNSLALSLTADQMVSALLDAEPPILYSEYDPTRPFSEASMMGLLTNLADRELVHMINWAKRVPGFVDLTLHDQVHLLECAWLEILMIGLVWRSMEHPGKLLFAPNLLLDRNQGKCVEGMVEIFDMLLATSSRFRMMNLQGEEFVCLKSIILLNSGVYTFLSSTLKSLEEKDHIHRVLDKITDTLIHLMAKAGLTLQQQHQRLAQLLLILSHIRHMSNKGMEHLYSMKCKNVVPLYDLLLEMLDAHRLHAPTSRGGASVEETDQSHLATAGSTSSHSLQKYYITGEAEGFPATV
# [2] = test system: Vero; experiment: cells; type: functional; details: Chlorocebus sabaeus
# [3] = molecular target: Albumin (Bos taurus, UniProt P02769); experiment: Counterscreen for inhibitors of T-cell receptor (TCR)-CD3 interaction: Fluorescence-based biochemical high throughput dose response assay to identify inhibitors of T-cell receptor (TCR)-CD3 interaction using a TAMRA-labeled BSA probe.; type: functional
# Albumin, sequence (P02769 whole entry): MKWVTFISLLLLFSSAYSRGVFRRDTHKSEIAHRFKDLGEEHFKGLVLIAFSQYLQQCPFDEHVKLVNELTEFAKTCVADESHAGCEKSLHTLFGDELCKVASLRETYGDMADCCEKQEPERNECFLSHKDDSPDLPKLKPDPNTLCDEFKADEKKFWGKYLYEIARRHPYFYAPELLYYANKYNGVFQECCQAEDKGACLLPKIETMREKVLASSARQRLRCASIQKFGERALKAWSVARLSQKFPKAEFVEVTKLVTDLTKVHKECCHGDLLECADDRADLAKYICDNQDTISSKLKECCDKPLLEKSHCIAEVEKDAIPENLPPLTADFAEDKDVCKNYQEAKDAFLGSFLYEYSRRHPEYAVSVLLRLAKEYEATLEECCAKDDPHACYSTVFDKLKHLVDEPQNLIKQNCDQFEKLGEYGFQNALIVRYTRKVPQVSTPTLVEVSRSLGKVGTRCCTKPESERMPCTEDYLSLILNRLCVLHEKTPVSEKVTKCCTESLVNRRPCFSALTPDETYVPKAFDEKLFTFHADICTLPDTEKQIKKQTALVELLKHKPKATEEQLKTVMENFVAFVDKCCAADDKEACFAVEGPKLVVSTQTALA
# [4] = molecular target: T2, Cysteine protease ATG4B (Homo sapiens, UniProt Q9Y4P1); type: functional;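 note: Fluorescence-based dose-response confirmation assay measuring inhibition of ATG4B activity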
# T2 sequence (Q9Y4P1 whole entry): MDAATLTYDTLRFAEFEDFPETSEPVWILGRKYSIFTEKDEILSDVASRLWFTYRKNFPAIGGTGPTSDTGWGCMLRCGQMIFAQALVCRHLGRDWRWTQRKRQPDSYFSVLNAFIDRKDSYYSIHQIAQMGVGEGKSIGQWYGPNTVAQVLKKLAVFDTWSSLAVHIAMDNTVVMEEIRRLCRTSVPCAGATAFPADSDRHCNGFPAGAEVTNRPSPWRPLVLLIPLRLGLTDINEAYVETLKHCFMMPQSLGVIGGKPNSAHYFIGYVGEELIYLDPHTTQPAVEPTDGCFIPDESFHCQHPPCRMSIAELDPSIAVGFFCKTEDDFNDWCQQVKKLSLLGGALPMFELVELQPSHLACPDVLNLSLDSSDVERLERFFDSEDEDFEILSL
# [5] = molecular target: Phospholipase A2 (Homo sapiens, UniProt P04054); type: functional;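 note: confirmatory dose-response counterscreen on phospholipase A2, testing hits that came from an ultra-high-throughput screen for ATG4B inhibitors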
# Phospholipase A2, sequence (P04054 whole entry): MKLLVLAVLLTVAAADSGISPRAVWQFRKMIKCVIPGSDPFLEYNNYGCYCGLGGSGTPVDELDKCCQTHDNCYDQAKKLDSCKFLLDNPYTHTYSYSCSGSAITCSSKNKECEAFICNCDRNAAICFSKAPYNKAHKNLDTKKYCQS
# [6] = HPDE-C7 pancreatic duct cell viability loss – fluorescence, HTS (AID 430); type: functional, cell-based; details: Homo sapiens
# [7] = viability loss of HPDE-C7K cells – cell-based, fluorescence, HTS, primary screen (AID 431); type: functional; details: Homo sapiens
# [8] = molecular target: FAD-linked sulfhydryl oxidase ALR (Homo sapiens, UniProt P55789); experiment: ALR-catalysed DTT oxidation blockers – biochemical, H2O2 detection, luminescence, cherry-pick, dose response (AID 493248)
# FAD-linked sulfhydryl oxidase ALR, sequence (P55789 whole entry): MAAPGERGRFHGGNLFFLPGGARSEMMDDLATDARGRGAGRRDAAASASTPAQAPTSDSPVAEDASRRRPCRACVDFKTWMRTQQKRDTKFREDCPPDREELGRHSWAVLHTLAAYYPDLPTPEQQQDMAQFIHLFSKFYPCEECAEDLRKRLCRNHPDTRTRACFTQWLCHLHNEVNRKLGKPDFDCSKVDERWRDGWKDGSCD
# [9] = luciferase reporter signal suppression in cells – H4 neuroglioma cells, luminescence, dose response (AID 1990); type: functional, cell-based
# [10] = test system: HEK293; experiment: cells; details: Homo sapiens
# [11] = alpha-synuclein stem-loop luciferase translation blockers – H4 neuroglioma cells, luminescence, confirmation (AID 1988); type: functional, cell-based
# [12] = microbe, parasite or virus in culture; type: functional; details: Mycobacterium tuberculosis
# [13] = test system: HEK293; experiment: cells; details: Homo sapiens; remark: listed apart in the source
# [14] = viability loss in THP-1 monocytes – THP-1 cells, cytotoxicity control for Vif-APOBEC3G degradation inhibitor project, dose response (AID 1117359); type: functional; details: THP-1
# [15] = molecular target: Disintegrin and metalloproteinase domain-containing protein 17 (Homo sapiens, UniProt P78536); experiment: inhibition of ADAM17 substrate cleavage – biochemical, quenched FRET substrate, counter-screen for ADAM10 exosite inhibitor project, dose response (AID 743253)
# Disintegrin and metalloproteinase domain-containing protein 17, sequence (P78536 whole entry, the tested form may be a part): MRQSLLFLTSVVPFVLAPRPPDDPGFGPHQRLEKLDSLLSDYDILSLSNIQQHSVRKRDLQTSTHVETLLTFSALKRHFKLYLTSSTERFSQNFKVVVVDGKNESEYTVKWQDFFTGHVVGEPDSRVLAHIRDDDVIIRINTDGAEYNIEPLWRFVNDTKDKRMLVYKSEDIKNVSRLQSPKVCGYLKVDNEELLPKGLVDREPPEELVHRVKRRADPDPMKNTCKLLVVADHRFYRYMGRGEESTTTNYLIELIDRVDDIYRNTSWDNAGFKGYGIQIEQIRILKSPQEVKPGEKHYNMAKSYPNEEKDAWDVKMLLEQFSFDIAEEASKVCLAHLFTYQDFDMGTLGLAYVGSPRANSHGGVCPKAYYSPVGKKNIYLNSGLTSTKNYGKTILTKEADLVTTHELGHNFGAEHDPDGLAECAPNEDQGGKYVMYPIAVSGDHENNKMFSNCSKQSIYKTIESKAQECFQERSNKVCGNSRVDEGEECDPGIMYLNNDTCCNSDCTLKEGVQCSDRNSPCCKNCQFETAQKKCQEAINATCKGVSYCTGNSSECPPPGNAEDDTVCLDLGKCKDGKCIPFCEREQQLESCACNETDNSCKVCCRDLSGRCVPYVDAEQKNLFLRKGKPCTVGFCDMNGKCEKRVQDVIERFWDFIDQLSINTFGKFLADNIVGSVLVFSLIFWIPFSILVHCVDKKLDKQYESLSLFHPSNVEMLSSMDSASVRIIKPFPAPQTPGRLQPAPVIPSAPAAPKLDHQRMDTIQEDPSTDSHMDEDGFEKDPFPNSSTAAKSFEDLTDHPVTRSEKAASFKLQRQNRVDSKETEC
# [16] = test system: Streptococcus sp. 'group A'; experiment: Streptococcus pyogenes SK(-)GAS viability under kanamycin – luminescence, BacTiterGlo, confirmation, counter-screen for streptokinase expression inhibitor project, dose response (AID 1900); type: functional, organism-based
# [17] = test system: Streptococcus; experiment: GAS UMAA2166 growth inhibition – luminescence, BacTiterGlo, counter-screen for streptokinase expression inhibitor project, dose response (AID 1915); type: functional, organism-based;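 note: potency for reduction of bacterial viability or growth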
# [18] = molecular target: T3, Streptokinase A (Streptococcus pyogenes serotype M1, UniProt P10520); experiment: viability-normalized secreted streptokinase activity reduction – plasminogen activation absorbance, OD405, dose response (AID 1914); type: functional, Streptococcus pyogenes M1 GAS;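 note: secreted streptokinase activity via plasminogen activation per viability signal from cell pellet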
# T3 sequence (P10520 whole entry): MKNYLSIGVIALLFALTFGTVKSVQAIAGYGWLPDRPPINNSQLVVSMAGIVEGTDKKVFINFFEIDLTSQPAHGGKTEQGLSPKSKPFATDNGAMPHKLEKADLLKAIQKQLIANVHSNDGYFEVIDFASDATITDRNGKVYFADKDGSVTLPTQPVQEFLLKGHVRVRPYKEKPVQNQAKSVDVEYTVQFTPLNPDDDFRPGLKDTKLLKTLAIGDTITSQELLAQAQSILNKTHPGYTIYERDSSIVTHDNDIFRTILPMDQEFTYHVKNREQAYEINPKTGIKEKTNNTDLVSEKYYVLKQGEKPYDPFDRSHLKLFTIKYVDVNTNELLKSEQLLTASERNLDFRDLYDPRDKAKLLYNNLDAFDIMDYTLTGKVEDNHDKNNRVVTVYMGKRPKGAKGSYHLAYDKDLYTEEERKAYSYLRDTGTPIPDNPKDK
# [19] = test system: H9c2; experiment: cells; type: functional, cell-based; details: Rattus norvegicus, H9c2, Myocardium;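 note: confirmatory concentration-response retest of ultra-high-throughput screening hits for modulation of myocardial damage; cell death induced by hydrogen peroxide oxidative stress; compound pretreatment for 60 min then peroxide exposure for 2 h; potency is for protecting the cells against peroxide damage rather than for killing them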
# [20] = NIH-3T3 fibroblast cytotoxicity, dose response, cytotoxicity control, cell-based, fluorescence, Alamar Blue, secondary assay (AID 2327); type: functional;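 note: NIH-3T3 mouse fibroblasts cultured with fluconazole at 8 µg/mL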
# [21] = molecular target: Mu-type opioid receptor (Homo sapiens, UniProt P35372); type: functional, cell-based;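 note: U2OS cells with beta-arrestin recruitment to OPRM1 by beta-gal complementation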
# Mu-type opioid receptor, sequence (P35372 whole entry): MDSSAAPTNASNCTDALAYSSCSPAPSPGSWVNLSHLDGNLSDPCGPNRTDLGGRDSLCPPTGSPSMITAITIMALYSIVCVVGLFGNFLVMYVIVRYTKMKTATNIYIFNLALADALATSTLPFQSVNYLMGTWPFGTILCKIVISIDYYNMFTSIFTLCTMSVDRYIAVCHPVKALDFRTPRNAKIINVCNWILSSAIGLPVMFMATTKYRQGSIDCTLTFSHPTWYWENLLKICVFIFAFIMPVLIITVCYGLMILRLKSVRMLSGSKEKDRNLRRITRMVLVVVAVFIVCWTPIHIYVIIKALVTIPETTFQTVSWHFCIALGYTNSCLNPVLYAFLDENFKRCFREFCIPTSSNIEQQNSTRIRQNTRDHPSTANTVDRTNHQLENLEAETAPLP
# [22] = molecular target: 5-hydroxytryptamine receptor 2A (Mus musculus, UniProt P35363); type: functional, cell-based;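 note: CHO-K1 cells with tagged receptor and beta-arrestin; agonist potency measured as compound-induced activation of the receptor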
# 5-hydroxytryptamine receptor 2A, sequence (P35363 whole entry): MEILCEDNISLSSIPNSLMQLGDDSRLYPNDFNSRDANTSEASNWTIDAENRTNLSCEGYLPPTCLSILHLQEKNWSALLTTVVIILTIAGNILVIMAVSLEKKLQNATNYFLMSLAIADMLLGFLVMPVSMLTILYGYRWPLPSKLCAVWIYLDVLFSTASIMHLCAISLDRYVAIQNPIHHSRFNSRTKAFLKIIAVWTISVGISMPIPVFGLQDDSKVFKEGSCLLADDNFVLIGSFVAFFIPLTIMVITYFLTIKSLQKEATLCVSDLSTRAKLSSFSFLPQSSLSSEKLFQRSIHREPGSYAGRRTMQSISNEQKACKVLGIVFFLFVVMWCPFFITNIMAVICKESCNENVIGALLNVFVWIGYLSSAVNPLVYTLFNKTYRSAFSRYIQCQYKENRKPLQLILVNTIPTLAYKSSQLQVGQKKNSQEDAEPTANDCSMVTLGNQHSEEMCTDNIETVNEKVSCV
# [23] = molecular target: Heat shock protein HSP 90-alpha (Homo sapiens, UniProt P07900); type: functional, organism-based
# [24] = molecular target: T4, Heat shock factor protein 1 (Mus musculus, UniProt P38532); experiment: enhancement of HSF1-driven luciferase signal – cell-based, NIH3T3, luminescence, dose retest, confirmation (AID 435004); type: functional;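 note: stress induced by proteasome inhibitor MG132 added 30 min after compound; luciferase reporter driven by HSF1 response element in NIH3T3 cells; actives raise luminescence as potentiators of the MG132 stress response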
# T4 sequence (P38532 whole entry): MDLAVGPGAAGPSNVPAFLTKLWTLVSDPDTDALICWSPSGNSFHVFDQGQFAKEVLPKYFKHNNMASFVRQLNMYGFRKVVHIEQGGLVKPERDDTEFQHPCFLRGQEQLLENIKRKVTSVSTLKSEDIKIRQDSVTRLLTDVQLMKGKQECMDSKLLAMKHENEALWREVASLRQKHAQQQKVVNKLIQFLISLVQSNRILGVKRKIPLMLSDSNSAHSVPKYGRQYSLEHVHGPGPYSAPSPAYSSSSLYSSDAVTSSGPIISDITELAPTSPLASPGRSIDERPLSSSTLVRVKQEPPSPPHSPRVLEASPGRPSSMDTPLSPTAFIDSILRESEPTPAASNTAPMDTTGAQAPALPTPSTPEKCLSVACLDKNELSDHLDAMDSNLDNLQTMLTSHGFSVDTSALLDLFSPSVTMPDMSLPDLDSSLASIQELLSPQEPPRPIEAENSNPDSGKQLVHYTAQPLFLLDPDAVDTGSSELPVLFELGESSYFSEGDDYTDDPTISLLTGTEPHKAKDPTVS
# [25] = growth inhibition of PfATP4-mutant resistant parasites – NITD609-resistant line, SYBR Green, dry powder, dose response (AID 1159571); type: functional, cell-based;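 note: parasites synchronized at ring stage by sorbitol before testing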
# [26] = P. falciparum Dd2 growth inhibitors, dose response, SYBR Green, cherry-picked samples (AID 1159567); type: functional, cell-based
# [27] = growth inhibition of yeast DHODH-expressing 3D7 parasites – SYBR Green, dry powder samples, dose response (AID 1159570); type: functional, cell-based;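 note: parasite growth measured after 72 hours of compound exposure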
# [28] = Dd2 malaria parasite growth inhibition potency – SYBR Green, dry powder samples, dose response (AID 1159566); type: functional, cell-based;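 note: potency for growth inhibition with lower SYBR green DNA signal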
# [29] = Dd2 parasite growth inhibition in erythrocytes – SYBR Green, dry powder samples, set 9, dose response (AID 1159568); type: functional, cell-based
structure (smiles),measurement,setting,value
CCOC(=O)CSc1nn(C)c(=S)s1,IC50,[1],7.98 µM (active)
COc1ccc(-c2cc(CNS(=O)(=O)c3ccc(NC(C)=O)cc3)on2)cc1,CC50,[2],> 25 µM (active)
COc1ccc(-c2cnnn2-c2ccc(NC(=O)c3ccc(S(=O)(=O)N4CCCCC4)cc3)cc2)cc1OC,IC50,[3],> 94.1 µM (inactive)
Cc1cc(NS(=O)(=O)c2ccc(Nc3nc(-c4ccc(C)c(C)c4)cs3)cc2)no1,IC50,[4],13.1 µM (active)
same,IC50,[5],11.9 µM (active)
N#CC1=C2SCC(O)(c3ccccc3)N2C(=O)CC1c1cccs1 (stereo not given),EC50,[6],1.44 µM (active)
same,EC50,[7],1.53 µM (active)
CC(C)c1ccc(NC2CCCN(C(=O)CCN3Cc4ccccc4C3=O)C2)cc1 (stereo not given),AC50,[8],4.43 µM (active)
same,IC50,[4],15.5 µM (active)
same,IC50,[5],7.98 µM (active)
COc1ccc(-c2nnc3sc(C4CCCCC4)nn23)cc1OC,EC50,[9],58.6 µM (active)
same,EC50,[10],> 59.7 µM (inactive)
same,EC50,[11],25.6 µM (active)
same,CC50,[12],> 40 µM (active)
same,EC50,[13],> 59.7 µM (inactive)
COc1ccc(C(=O)C2CCCN(C(=O)c3cnsn3)C2)c(C)c1 (stereo not given),CC50,[14],> 40 µM (active)
CCOc1ccc(Nc2oc(-c3ccccc3Cl)nc2C#N)cc1,IC50,[1],9.54 µM (active)
COc1ccc(C2NC3=C(CCCC3)C(C#N)(C#N)C2(C#N)C#N)cc1 (stereo not given),EC50,[6],> 20 µM (not active)
same,EC50,[7],> 20 µM (not active)
O=[N+]([O-])c1cc(S(=O)(=O)Nc2ccccc2)ccc1N1CCN(c2ccccc2)CC1,IC50,[15],> 69.5 µM (inactive)
same,EC50,[16],16.2 µM (active)
same,EC50,[17],> 150 µM (not active)
same,EC50,[18],23.9 µM (active)
same,CC50,[2],13.5 µM (active)
CCOC(=O)c1c(C)nc2sc3c(=O)n(-c4ccc(C(C)=O)cc4)cnc3c2c1-c1ccc(OC)cc1,IC50,[19],> 79 µM (inactive)
CCOc1cccc(CN2CCCC(C(=O)Nc3cccc(-n4cccn4)c3)C2)c1 (stereo not given),CC50,[14],> 40 µM (active)
COc1ccc(C(=O)Oc2c(CN3CCOCC3)cc(Cl)c3cccnc23)cc1,EC50,[20],> 160 µM (inactive)
same,EC50,[6],5.17 µM (active)
same,EC50,[7],13.4 µM (active)
same,CC50,[14],5.39 µM (active)
O=C(NNC(=O)c1cc(-c2ccccc2)nc2ccccc12)Nc1cccc(Cl)c1,IC50,[15],> 69.5 µM (inactive)
same,EC50,[16],3.9 µM (active)
same,EC50,[17],40.2 µM (active)
same,EC50,[18],22.4 µM (active)
COc1cc(OC)cc(-c2nc3ccccc3c(=O)n2OC(=O)c2ccc(Br)cc2)c1,IC50,[4],2.51 µM (active)
same,IC50,[5],4.74 µM (active)
COC(=O)c1ccc(N2CCC(c3cc(-c4ccc(OC)cc4)n[nH]3)CC2)c([N+](=O)[O-])c1,IC50,[15],> 69.5 µM (inactive)
same,EC50,[18],> 150 µM (not active)
COc1cc(CN2CCN(c3ncccn3)CC2)cc(OC)c1,EC50,[21],92.4 µM (inactive)
same,EC50,[22],0.384 µM (active)
COc1ccc(N(CC(=O)Nc2cccc(C(C)=O)c2)S(=O)(=O)c2ccc(NC(C)=O)cc2)cc1,IC50,[19],> 79 µM (inactive)
CCCSc1nc(C)c(-c2csc(C(C#N)=C3CCCC3)n2)cc1C#N,IC50,[1],9.34 µM (active)
Cc1ccccc1CN1CCN(C(=O)c2ccco2)CC1,EC50,[21],92.5 µM (inactive)
same,EC50,[22],4.89 µM (active)
CCNC(=O)/C(C#N)=C/c1c(N(Cc2ccccc2)Cc2ccccc2)nc2ccccn2c1=O,IC50,[19],> 79 µM (inactive)
c1ccc(COc2ccc(CN3CCN(c4ccccn4)CC3)cc2)cc1,EC50,[21],92.5 µM (inactive)
same,EC50,[22],0.054 µM (active)
Cc1cccc(NC(=O)COc2cccc3c2CCNC3=O)c1,IC50,[19],> 79 µM (inactive)
Cc1ccc(O)c(/C=N/NC(=O)COc2ccc3c(C)cc(=O)oc3c2)c1,IC50,[3],> 94.1 µM (inactive)
O=C(N/N=C/c1ccccn1)c1cc(-c2ccc(Br)cc2)nc2ccccc12,AC50,[23],2.24 µM (active)
same,EC50,[24],4.85 µM (active)
same,CC50,[2],9.94 µM (active)
C[C@@H]1CN([C@H](C)CO)C(=O)c2cccc(NC(=O)c3nc4ccccc4s3)c2O[C@H]1CN(C)C(=O)Nc1ccc(C(F)(F)F)cc1,AC50,[25],0.816 µM (active)
same,AC50,[26],2.06 µM (active)
same,AC50,[27],1.18 µM (active)
same,AC50,[28],1.08 µM (active)
COc1ccc([C@H]2C/C=C/C[C@H](C)Oc3ccccc3C(=O)N(C)[C@@H](Cc3ccccc3)C(=O)N2)c(OC)c1.COc1ccc([C@H]2C/C=C\C[C@H](C)Oc3ccccc3C(=O)N(C)[C@@H](Cc3ccccc3)C(=O)N2)c(OC)c1,AC50,[29],1.58 µM (active)
C[C@@H]1CCCCO[C@H](CN(C)S(=O)(=O)c2ccc(F)cc2)[C@H](C)CN([C@H](C)CO)C(=O)c2cc(N(C)C)ccc2O1,AC50,[29],4.45 µM (active)
CS(=O)(=O)N1[C@H](C#N)[C@H](c2ccc(C#Cc3cccc(F)c3)cc2)[C@H]1CO,AC50,[29],10.1 µM (active)
c1ccc2c(c1)NCC1CCCN21 (stereo not given),CC50,[14],> 40 µM (active)
